The values that follow come from ChEMBL document CHEMBL3044721, “Homology modeling of human CCR2 receptor” (Med Chem Res, 2011).

The assay deals with C-C chemokine receptor type 2 (Homo sapiens, UniProt P41597). In words: Antagonist activity at Homo sapiens (human) CCR2 receptor.
Chain of C-C chemokine receptor type 2 (P41597 whole entry): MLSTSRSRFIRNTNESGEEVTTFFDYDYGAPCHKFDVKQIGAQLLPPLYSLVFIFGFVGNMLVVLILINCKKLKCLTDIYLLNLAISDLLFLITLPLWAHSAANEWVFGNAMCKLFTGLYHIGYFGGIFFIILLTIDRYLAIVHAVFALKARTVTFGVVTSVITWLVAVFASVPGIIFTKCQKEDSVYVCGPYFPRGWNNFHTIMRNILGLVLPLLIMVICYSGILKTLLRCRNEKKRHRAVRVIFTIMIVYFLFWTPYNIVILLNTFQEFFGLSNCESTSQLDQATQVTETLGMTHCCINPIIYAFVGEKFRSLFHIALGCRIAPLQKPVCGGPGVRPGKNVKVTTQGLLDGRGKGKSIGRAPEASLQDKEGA

The term IC50 denotes the point on the concentration scale where inhibition reaches its midpoint. Compound `CO[C@@H]1COCC[C@@H]1N[C@@H]1CC[C@](C(=O)N2CCc3ncc(C(F)(F)F)cc3C2)(C(C)C)C1` displayed an IC50 of 5 nM. This lies in the single-digit nanomolar range. Next, `O=C(NCc1cc(C(F)(F)F)cc(C(F)(F)F)c1)[C@H](NCCN1CCCCC1)c1ccsc1`: 39 nM.
